ChEMBL document CHEMBL4699602, “Stapled and Xenopus Glucagon-Like Peptide 1 (GLP-1)-Based Dual GLP-1/Gastrin Receptor Agonists with Improved Metabolic Benefits in Rodent Models of Obesity and Diabetes” (J Med Chem, 2020)
Where a SMILES comes first, the peptide text is derived from it.

Columns and labels:
[1] = biological target: T1, Glucagon-like peptide 1 receptor (Homo sapiens, UniProt P43220); test: Agonist activity at human GLP-1R expressed in HEK293 cells assessed as stimulation of cAMP accumulation incubated for 20 mins in presence of 4.4% HSA; type: functional, cell-based
[2] = biological target: T1, Glucagon-like peptide 1 receptor; test: Agonist activity at human GLP-1R expressed in HEK293 cells assessed as stimulation of cAMP accumulation incubated for 20 mins in presence of 0% HSA; type: functional, cell-based
[3] = biological target: T1, Glucagon-like peptide 1 receptor; test: Ratio of EC50 for agonist activity at human GLP-1R expressed in HEK293 cells in presence of 4.4% HSA to EC50 for agonist activity at human GLP-1R expressed in HEK293 cells in presence of 0% HSA; type: cell-based

T1 sequence (P43220 whole entry): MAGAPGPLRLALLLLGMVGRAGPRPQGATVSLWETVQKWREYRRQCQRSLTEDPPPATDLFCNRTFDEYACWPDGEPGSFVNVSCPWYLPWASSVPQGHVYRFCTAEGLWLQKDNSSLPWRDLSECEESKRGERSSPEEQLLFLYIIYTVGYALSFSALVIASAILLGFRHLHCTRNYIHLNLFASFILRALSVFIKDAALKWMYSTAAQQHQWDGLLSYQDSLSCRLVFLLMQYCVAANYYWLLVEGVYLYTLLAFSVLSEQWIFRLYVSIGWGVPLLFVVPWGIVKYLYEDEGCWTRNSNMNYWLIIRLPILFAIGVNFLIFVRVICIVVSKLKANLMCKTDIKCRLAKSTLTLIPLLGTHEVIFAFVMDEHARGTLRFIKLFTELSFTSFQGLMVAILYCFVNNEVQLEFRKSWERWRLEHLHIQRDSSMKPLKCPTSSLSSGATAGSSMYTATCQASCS

SMILES	EC50 [1] [nM]	EC50 [2] [nM]	Ratio EC50 [3]
CC[C@H](C)[C@@H]1NC(=O)[C@H](CC(C)C)NC(=O)[C@H](Cc2c[nH]c3ccccc23)NC(=O)[C@H](CCC(=O)O)NC(=O)[C@H]([C@@H](C)CC)NC(=O)[C@H](Cc2ccccc2)NC(=O)[C@@H](NC(=O)[C@H](CCCCN)NC(=O)[C@H](C)NC(=O)[C@H](C)NC(=O)[C@H](CCC(=O)O)NC(=O)[C@H](CCC(=O)O)NC(=O)[C@H](CCC(=O)O)NC(=O)[C@H](CC(C)C)NC(=O)[C@H](Cc2ccc(O)cc2)NC(=O)[C@H](CCC(=O)O)NC(=O)[C@@H](NC(=O)[C@@H](NC(=O)[C@H](CC(=O)O)NC(=O)[C@H](CC(N)=O)NC(=O)[C@@H](NC(=O)[C@H](Cc2ccc(O)cc2)NC(=O)[C@@H](NC(=O)CNC(=O)[C@H](CCC(=O)O)NC(=O)C(C)(C)NC(=O)[C@@H](N)Cc2c[nH]cn2)[C@@H](C)O)[C@@H](C)O)C(C)C)[C@@H](C)O)CSC2CC(=O)N(CCC(=O)NCCCCC(C(=O)NCCCCCCNC(=O)COCCOCCNC(=O)CCC(NC(=O)CCCCCCCCCCCCCCCCC(=O)O)C(=O)O)NC(=O)CCN3C(=O)CC(SC[C@@H](C(=O)NCC(=O)N[C@@H](CCCCN)C(=O)N4CCC[C@H]4C(=O)N[C@@H](CO)C(=O)N[C@@H](CO)C(=O)NCC(=O)N[C@@H](C)C(=O)N4CCC[C@H]4C(=O)N4CCC[C@H]4C(=O)N4CCC[C@H]4C(=O)N[C@@H](CO)C(N)=O)NC1=O)C3=O)C2=O (some centres not stated) (HELM PEPTIDE1{H.[Aib].E.G.T.Y.T.N.D.V.T.E.Y.L.E.E.E.A.A.K.C.F.I.E.W.L.I.C.G.K.P.S.S.G.A.P.P.P.S.[am]}|CHEM1{[O=C(O)CCCCCCCCCCCCCCCCC(=O)NC(CCC(=O)NCCOCCOCC(=O)NCCCCCCNC(=O)C(CCCCNC(=O)CCN1C(=O)CC([*:1])C1=O)NC(=O)CCN1C(=O)CC([*:2])C1=O)C(=O)O]}$PEPTIDE1,CHEM1,21:R3-1:R1|PEPTIDE1,CHEM1,28:R3-1:R2$$$V2.0)	8.6	0.14	61.4
CC[C@H](C)[C@@H]1NC(=O)[C@H](CC(C)C)NC(=O)[C@H](Cc2c[nH]c3ccccc23)NC(=O)[C@H](CCC(=O)O)NC(=O)[C@H]([C@@H](C)CC)NC(=O)[C@H](Cc2ccccc2)NC(=O)[C@@H](NC(=O)[C@H](CCCCN)NC(=O)[C@H](C)NC(=O)[C@H](C)NC(=O)[C@H](CCC(=O)O)NC(=O)[C@H](CCC(=O)O)NC(=O)[C@H](CCC(=O)O)NC(=O)[C@H](CC(C)C)NC(=O)[C@H](Cc2ccc(O)cc2)NC(=O)[C@H](CCC(=O)O)NC(=O)[C@@H](NC(=O)[C@@H](NC(=O)[C@H](CC(=O)O)NC(=O)[C@H](CC(N)=O)NC(=O)[C@@H](NC(=O)[C@H](Cc2ccc(O)cc2)NC(=O)[C@@H](NC(=O)CNC(=O)[C@H](CCC(=O)O)NC(=O)C(C)(C)NC(=O)[C@@H](N)Cc2c[nH]cn2)[C@@H](C)O)[C@@H](C)O)C(C)C)[C@@H](C)O)CSC2CC(=O)N(CCC(=O)NCCCCC(C(=O)NCCCCCCNC(=O)COCCOCCNC(=O)COCCOCCNC(=O)CCC(NC(=O)CCCCCCCCCCCCCCCCC(=O)O)C(=O)O)NC(=O)CCN3C(=O)CC(SC[C@@H](C(=O)NCC(=O)N[C@@H](CCCCN)C(=O)N4CCC[C@H]4C(=O)N[C@@H](CO)C(=O)N[C@@H](CO)C(=O)NCC(=O)N[C@@H](C)C(=O)N4CCC[C@H]4C(=O)N4CCC[C@H]4C(=O)N4CCC[C@H]4C(=O)N[C@@H](CO)C(N)=O)NC1=O)C3=O)C2=O (some centres not stated) (HELM PEPTIDE1{H.[Aib].E.G.T.Y.T.N.D.V.T.E.Y.L.E.E.E.A.A.K.C.F.I.E.W.L.I.C.G.K.P.S.S.G.A.P.P.P.S.[am]}|CHEM1{[O=C(O)CCCCCCCCCCCCCCCCC(=O)NC(CCC(=O)NCCOCCOCC(=O)NCCOCCOCC(=O)NCCCCCCNC(=O)C(CCCCNC(=O)CCN1C(=O)CC([*:1])C1=O)NC(=O)CCN1C(=O)CC([*:2])C1=O)C(=O)O]}$PEPTIDE1,CHEM1,21:R3-1:R1|PEPTIDE1,CHEM1,28:R3-1:R2$$$V2.0)	16.5	0.17	97.1
CC[C@H](C)[C@@H]1NC(=O)[C@H](CC(C)C)NC(=O)[C@H](Cc2c[nH]c3ccccc23)NC(=O)[C@H](CCC(=O)O)NC(=O)[C@H]([C@@H](C)CC)NC(=O)[C@H](Cc2ccccc2)NC(=O)[C@@H](NC(=O)[C@H](CCCCN)NC(=O)[C@H](C)NC(=O)[C@H](C)NC(=O)[C@H](CCC(=O)O)NC(=O)[C@H](CCC(=O)O)NC(=O)[C@H](CCC(=O)O)NC(=O)[C@H](CC(C)C)NC(=O)[C@H](Cc2ccc(O)cc2)NC(=O)[C@H](CCC(=O)O)NC(=O)[C@@H](NC(=O)[C@@H](NC(=O)[C@H](CC(=O)O)NC(=O)[C@H](CC(N)=O)NC(=O)[C@@H](NC(=O)[C@H](Cc2ccc(O)cc2)NC(=O)[C@@H](NC(=O)CNC(=O)[C@H](CCC(=O)O)NC(=O)C(C)(C)NC(=O)[C@@H](N)Cc2c[nH]cn2)[C@@H](C)O)[C@@H](C)O)C(C)C)[C@@H](C)O)CSC2CC(=O)N(CCC(=O)NCCCCC(C(=O)NCCCCCCNC(=O)COCCOCCNC(=O)CCCCCCCCCCCCCCCCC(=O)O)NC(=O)CCN3C(=O)CC(SC[C@@H](C(=O)NCC(=O)N[C@@H](CCCCN)C(=O)N4CCC[C@H]4C(=O)N[C@@H](CO)C(=O)N[C@@H](CO)C(=O)NCC(=O)N[C@@H](C)C(=O)N4CCC[C@H]4C(=O)N4CCC[C@H]4C(=O)N4CCC[C@H]4C(=O)N[C@@H](CO)C(N)=O)NC1=O)C3=O)C2=O (some centres not stated) (HELM PEPTIDE1{H.[Aib].E.G.T.Y.T.N.D.V.T.E.Y.L.E.E.E.A.A.K.C.F.I.E.W.L.I.C.G.K.P.S.S.G.A.P.P.P.S.[am]}|CHEM1{[O=C(O)CCCCCCCCCCCCCCCCC(=O)NCCOCCOCC(=O)NCCCCCCNC(=O)C(CCCCNC(=O)CCN1C(=O)CC([*:1])C1=O)NC(=O)CCN1C(=O)CC([*:2])C1=O]}$PEPTIDE1,CHEM1,21:R3-1:R1|PEPTIDE1,CHEM1,28:R3-1:R2$$$V2.0)	2.3	0.15	15.3
CCCCCCCCCCCCCCCC(=O)NCCCCCCNC(=O)C1CCCCNC(=O)CCN2C(=O)CC(SC[C@@H](C(=O)NCC(=O)N[C@@H](CCCCN)C(N)=O)NC(=O)[C@H]([C@@H](C)CC)NC(=O)[C@H](CC(C)C)NC(=O)[C@H](Cc3c[nH]c4ccccc34)NC(=O)[C@H](CCC(=O)O)NC(=O)[C@H]([C@@H](C)CC)NC(=O)[C@H](Cc3ccccc3)NC(=O)[C@@H](NC(=O)[C@H](CCCCN)NC(=O)[C@H](C)NC(=O)[C@H](C)NC(=O)[C@H](CCC(=O)O)NC(=O)[C@H](CCC(=O)O)NC(=O)[C@H](CCC(=O)O)NC(=O)[C@H](CC(C)C)NC(=O)[C@H](Cc3ccc(O)cc3)NC(=O)[C@H](CCC(=O)O)NC(=O)[C@@H](NC(=O)[C@@H](NC(=O)[C@H](CC(=O)O)NC(=O)[C@H](CC(N)=O)NC(=O)[C@@H](NC(=O)[C@H](Cc3ccc(O)cc3)NC(=O)[C@@H](NC(=O)CNC(=O)[C@H](CCC(=O)O)NC(=O)C(C)(C)NC(=O)[C@@H](N)Cc3c[nH]cn3)[C@@H](C)O)[C@@H](C)O)C(C)C)[C@@H](C)O)CSC3CC(=O)N(CCC(=O)N1)C3=O)C2=O (some centres not stated) (HELM PEPTIDE1{H.[Aib].E.G.T.Y.T.N.D.V.T.E.Y.L.E.E.E.A.A.K.C.F.I.E.W.L.I.C.G.K.[am]}|CHEM1{[CCCCCCCCCCCCCCCC(=O)NCCCCCCNC(=O)C(CCCCNC(=O)CCN1C(=O)CC([*:2])C1=O)NC(=O)CCN1C(=O)CC([*:1])C1=O]}$PEPTIDE1,CHEM1,21:R3-1:R1|PEPTIDE1,CHEM1,28:R3-1:R2$$$V2.0)	2.2	0.12	18.3
